Laboratory results as given in US20170055529A1, “BROAD SPECTRUM WEED CONTROL IN FLOODED RICE BY IN-WATER APPLICATION OF AUXIN HERBICIDES” (priority 2015, published 2017).
Marks after values point to notes of the source that are not given here.

Tests used:
Type in all cases: in vivo
[1] = test system: 'M202' rice (Japonica rice variety from California, USA); test: Greenhouse in-water application, transplanted paddy rice (small pots), crop injury
Excerpt: (§1) Weed seeds of the desired test plant species were planted in puddled soil (mud) prepared by mixing a non-sterilized mineral soil (approximately 50 percent silt, 26 percent clay, and 24 percent sand, with a pH of about 7.6 and an organic matter content of about 2.9 percent) and water at a 1:1 volumetric ratio. The prepared mud was dispensed in 365 milliliter (mL) aliquots into 16-ounce (oz.) non-perforated plastic pots with a surface area of 86.59 square centimeters (cm^2) leaving a headspace of 3 centimeters (cm) in each pot. Mud was allowed to dry overnight prior to planting or transplanting. Rice seeds were planted in Sun Gro® MetroMix® 360 planting mixture, which typically has a pH of 6.0 to 6.8 and an organic matter content of about 30 percent, in plastic plug trays. Seedlings at the second or third leaf stage of growth were transplanted into 840 mL of mud contained in 32-oz. non-perforated plastic pots with a surface area of 86.59 cm^2 four days prior to herbicide application. The paddy was created by filling the headspace of the pots with 2.5 to 3 cm of water. When required to ensure good germination and healthy plants, a fungicide treatment and/or other chemical or physical treatment was applied. The plants were grown for 4-22 days (d) in a greenhouse with an approximate 14-hour (h) photoperiod which was maintained at about 29° C. during the day and 26° C. during the night. Nutrients were added as Osmocote® (19:6:12, Nitrogen:Phosphorus:Potassium (N:P:K)+minor nutrients) at 2 g per 16 oz. pot and 4 g per 32 oz. pot. Water was added on a regular basis to maintain the paddy flood, and supplemental lighting was provided with overhead metal halide 1000-Watt lamps as necessary. The plants were used for testing when they reached the second or third true leaf stage.
(§2) Triclopyr triethylammonium (as Grandstand® R, 359.5 grams acid equivalent per liter (g ae/L)); fluroxypyr methylheptyl ester (meptyl or MHE, as Starane™, 179.8 g ae/L); 2,4-dichlorophenoxyacetic acid dimethylammonium (2,4-D DMA, as Weedar® 64, 455.4 g ae/L); and penoxsulam (as Grasp® SC, 239.7 grams active ingredient per liter (g ai/L) were used. Measured amounts of formulated compounds were placed in individual 120 mL glass vials and were dissolved in 40 mL of an aqueous mixture containing 1.25% volume per volume (v/v) Agri-Dex® crop oil concentrate. Generally, multiple concentrations were tested utilizing the same stock solution. Applications were made by injecting an appropriate amount of the application solution into the aqueous layer of the paddy. Control plants were treated in the same manner with the solvent blank.
(§3) The treated plants and control plants were placed in a greenhouse as described above and water was added as needed to maintain a paddy flood. After approximately 3 weeks the condition of the test plants, compared with that of the untreated plants, was determined visually and scored on a scale of 0 to 100 percent where 0 corresponds to no injury or growth reduction and 100 corresponds to complete kill.

[2] = test system: 'Wells' rice (Medium grain rice variety from Arkansas, USA); test: as above
Excerpt: as §1, §2, §3

[3] = test system: CYDPI = Cyperus difformis (small-flower flatsedge); test: Greenhouse in-water herbicidal activity (small pots)
Excerpt: as §1, §2, §3

[4] = test system: ECHCG = Echinochloa crus-galli (barnyardgrass); test: as above
Excerpt: as §1, §2, §3

[5] = test system: MOOVA = Monochoria vaginalis (monochoria); test: as above
Excerpt: as §1, §2, §3

[6] = test system: SCPJU = Schoenoplectus juncoides (Japanese bulrush); test: as above
Excerpt: as §1, §2, §3

[7] = test system: CYPDI = Cyperus difformis (small-flower flatsedge); test: Greenhouse in-water herbicidal activity (large pots); conditions: for Percent (%) Visual Injury Ratings - 16 DAA, CYPDI / Percent (%) Visual Injury Ratings - 22 DAA, CYPDI: greenhouse large pots; for pest or weed control at 280 g/ha / pest or weed control at 560 g/ha / pest or weed control at 1120 g/ha: Cyperus difformis, 744 h, read-out: Percent (%) Visual Injury Ratings - 31 DAA, CYPDI
Procedure: Weed seeds or nutlets of the desired test plant species were planted in puddled soil (mud) prepared by mixing shredded topsoil and deionized (DI) water in a 1:1 ratio in a standard cement mixer. […] Osmocote® (17:6:10 N:P:K; 0.5 teaspoon) was added to the bottom of a container. The container is a high-density polyethylene (HDPE) round container (4.163 L (1.1 gallon), 15 cm high×20.55 cm diameter; for treatment purposes, the surface area is calculated as 331 cm^2 with 1 hectare equivalent to 10^8 cm^2). The mud mixture (2,750 mL) was added to the container filling it half full. Stakes were placed horizontally in each container to create separate areas for which to plant each different plant species. Water was added on a regular basis to maintain the paddy flood, and supplemental lighting was provided with overhead metal halide 1000-Watt lamps as necessary.
Once the plants had reached the proper size (the growth stage of the various species ranged from 2 to 4 leaves), the containers were flooded with city water to a depth of 3 cm submerging the plants 80-100%. The outside of each container was measured and marked at a 3-cm line with a black permanent marker to eliminate water level variability during the trial period. Water was added daily to maintain this water depth. Triclopyr triethylammonium (as Garlon® 3 A, 360 g ae/L); triclopyr butoxyethyl ester (as Garlon® 4, 480 g ae/L); fluroxypyr methylheptyl ester (meptyl or MHE, as Starane® Ultra, 333 g ae/L); fluroxypyr acid (850 grams acid equivalent per kilogram (g ae/kg)); 2,4-dichlorophenoxyacetic acid dimethylammonium (2,4-D DMA, as Weedar® 64 EC, 456 g ae/L); 2,4-dichlorophenoxyacetic acid 2-ethylhexyl ester (2,4-D 2-EHE, as Agri Star®, 456 g ae/L); clopyralid olamine (as Stinger®, 360 g ae/L); and penoxsulam (as Grasp® SC, 240 g ai/L) were used. Each herbicide treatment for each pot was mixed in water (80 mL) and applied directly into the paddy water at rates adjusted to the surface area. The dry formulations were pre-weighed based on the rate of the active ingredient to be applied on a per unit area basis, placed in 30 mL vials, and capped. Granules were spread onto the top of the water in each pot and dispersed throughout the water. Treatments were replicated 3 times.
The treated plants and control plants were placed in a greenhouse as described above and water was added as needed to maintain a flood depth of 3 cm. […]

| Compound | Percent (%) Visual Injury Ratings - 20 DAA, M202′ Rice ([1]; 280 g ae/ha in-water) | Percent (%) Visual Injury Ratings - 20 DAA, M202′ Rice ([1]; 560 g ae/ha in-water) | Percent (%) Visual Injury Ratings - 20 DAA, M202′ Rice ([1]; 1120 g ae/ha in-water) | Percent (%) Visual Injury Ratings - 20 DAA, Wells′ Rice ([2]; 280 g ae/ha in-water) | Percent (%) Visual Injury Ratings - 20 DAA, Wells′ Rice ([2]; 560 g ae/ha in-water) | Percent (%) Visual Injury Ratings - 20 DAA, Wells′ Rice ([2]; 1120 g ae/ha in-water) | Percent (%) Visual Injury Ratings - 20 DAA, CYDPI ([3]; 280 g ae/ha in-water) | Percent (%) Visual Injury Ratings - 20 DAA, CYDPI ([3]; 560 g ae/ha in-water) | Percent (%) Visual Injury Ratings - 20 DAA, CYDPI ([3]; 1120 g ae/ha in-water) | Percent (%) Visual Injury Ratings - 20 DAA, ECHCG ([4]; 280 g ae/ha in-water) | Percent (%) Visual Injury Ratings - 20 DAA, ECHCG ([4]; 560 g ae/ha in-water) | Percent (%) Visual Injury Ratings - 20 DAA, ECHCG ([4]; 1120 g ae/ha in-water) | Percent (%) Visual Injury Ratings - 20 DAA, MOOVA ([5]; 280 g ae/ha in-water) | Percent (%) Visual Injury Ratings - 20 DAA, MOOVA ([5]; 560 g ae/ha in-water) | Percent (%) Visual Injury Ratings - 20 DAA, MOOVA ([5]; 1120 g ae/ha in-water) | Percent (%) Visual Injury Ratings - 20 DAA, SCPJU ([6]; 280 g ae/ha in-water) | Percent (%) Visual Injury Ratings - 20 DAA, SCPJU ([6]; 560 g ae/ha in-water) | Percent (%) Visual Injury Ratings - 20 DAA, SCPJU ([6]; 1120 g ae/ha in-water) | Percent (%) Visual Injury Ratings - 16 DAA, CYPDI ([7]; 35 g ae/ha) | Percent (%) Visual Injury Ratings - 22 DAA, CYPDI ([7]; 35 g ae/ha) | further results |
| --- | --- | --- | --- | --- | --- | --- | --- | --- | --- | --- | --- | --- | --- | --- | --- | --- | --- | --- | --- | --- | --- |
| CCCCCCC(C)OC(=O)COc1nc(F)c(Cl)c(N)c1Cl (stereo not drawn) [Fluroxypyr-meptyl (Starane ® Ultra), 1-methylheptyl 2-[(4-amino-3,5-dichloro-6-fluoro-2-pyridinyl)oxy]acetate] | 0% | 0% | 35% | 0% | 0% | 10% | 100% | 100% | 100% | 0% | 25% | 99% | 85% | 100% | 100% | 60% | 90% | 100% | 8% | 28% | Percent (%) Visual Injury Ratings - 16 DAA, CYPDI ([7]; 70 g ae/ha): 13%; Percent (%) Visual Injury Ratings - 22 DAA, CYPDI ([7]; 70 g ae/ha): 28%; Percent (%) Visual Injury Ratings - 16 DAA, CYPDI ([7]; 140 g ae/ha): 20%; Percent (%) Visual Injury Ratings - 22 DAA, CYPDI ([7]; 140 g ae/ha): 79%; Percent (%) Visual Injury Ratings - 16 DAA, CYPDI ([7]; 280 g ae/ha): 33%; Percent (%) Visual Injury Ratings - 22 DAA, CYPDI ([7]; 280 g ae/ha): 89%; pest or weed control at 280 g/ha [7]: 100%; pest or weed control at 560 g/ha [7]: 100%; pest or weed control at 1120 g/ha [7]: 100% |
| O=C(O)COc1ccc(Cl)cc1Cl [2,4-D DMA (Weedar ® 64), dimethylammonium 2-(2,4-dichlorophenoxy)acetate] | 0% | 0% | 10* % | 0% | 0% | 0% | 90% | 100% | 100% | 0% | 20% | 80% | 90% | 100% | 99% | 70% | 100% | 100% | 99% | 89% | Percent (%) Visual Injury Ratings - 16 DAA, CYPDI ([7]; 70 g ae/ha): 100%; Percent (%) Visual Injury Ratings - 22 DAA, CYPDI ([7]; 70 g ae/ha): 76%; Percent (%) Visual Injury Ratings - 16 DAA, CYPDI ([7]; 140 g ae/ha): 98%; Percent (%) Visual Injury Ratings - 22 DAA, CYPDI ([7]; 140 g ae/ha): 92%; Percent (%) Visual Injury Ratings - 16 DAA, CYPDI ([7]; 280 g ae/ha): 97%; Percent (%) Visual Injury Ratings - 22 DAA, CYPDI ([7]; 280 g ae/ha): 98%; pest or weed control at 280 g/ha [7]: 100%; pest or weed control at 560 g/ha [7]: 100%; pest or weed control at 1120 g/ha [7]: 100% |
| O=C(O)COc1nc(Cl)c(Cl)cc1Cl [Triclopyr triethanolamine (Garlon ® 3A), triethylammonium 2[(3,5,6-trichloro-2-pyridinyl)oxy]acetate] | 0% | 0% | 20% | 0% | 0% | 10% | 100% | 100% | 100% | 40% | 70% | 85% | 95% | 99% | 100% | 70% | 95% | 100% | 100% | 100% | Percent (%) Visual Injury Ratings - 16 DAA, CYPDI ([7]; 70 g ae/ha): 98%; Percent (%) Visual Injury Ratings - 22 DAA, CYPDI ([7]; 70 g ae/ha): 100%; Percent (%) Visual Injury Ratings - 16 DAA, CYPDI ([7]; 140 g ae/ha): 97%; Percent (%) Visual Injury Ratings - 22 DAA, CYPDI ([7]; 140 g ae/ha): 100%; Percent (%) Visual Injury Ratings - 16 DAA, CYPDI ([7]; 280 g ae/ha): 100%; Percent (%) Visual Injury Ratings - 22 DAA, CYPDI ([7]; 280 g ae/ha): 100%; pest or weed control at 280 g/ha [7]: 97%; pest or weed control at 560 g/ha [7]: 99%; pest or weed control at 1120 g/ha [7]: 100% |
